This is an account of results in PubChem BioAssay (NCI).

Among the test systems are 786-0 renal; COLO 205 colon; DU-145 prostate; HCC-2998 colon; HCT-116 colon; HOP-62 NSCLC; LOX IMVI melanoma; NCI-H460 lung; SNB-75 CNS; UACC-62 melanoma.
Common to all, as to test: NCI-60 cell line screen, 48 h

Several values for one entry are separate records, joined by “and”; a condition that tells them apart may be missing. Identical values can stand only once.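 Compound exposure: 48 hours, 5 concentrations, 96-well plates. GI50 = concentration required for 50% inhibition of growth. At the TGI there is no net growth.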

Turning to `COc1c(CC=C(C)C)c(O)c(C(CC(C)C)c2c(O)c(CC=C(C)C)c(O)c(C(C)=O)c2O)c(O)c1C(C)=O` (configuration not stated), the TGI in the experiment on 786-0 renal turned out to be 11.9 µM; in the experiment with COLO 205 colon it was 4.7 µM; in the experiment with DU-145 prostate it was 16.5 µM; with HCC-2998 colon, 1.69 µM; with HCT-116 colon, 1.6 µM; in the experiment with HOP-62 NSCLC it was 3.96 µM. The TGI came to 3.59 µM in the experiment with LOX IMVI melanoma, 10.2 µM in the experiment on NCI-H460 lung, 8.32 µM in the experiment on SNB-75 CNS and 2.22 µM in the experiment on UACC-62 melanoma.

On to `CCn1ccnc1C(=O)/C=C/c1ccc(CC(=O)Nc2ccc(F)cc2)cc1`, for which the GI50 in the experiment with 786-0 renal was 4.36 µM; in the experiment with COLO 205 colon it was 4.29 µM; with DU-145 prostate, 4.45 µM; with HCC-2998 colon, 5.1 µM; in the experiment on HCT-116 colon, 1.84 µM; in the experiment on HOP-62 NSCLC it was 3.92 µM. Further, the GI50 in the experiment with LOX IMVI melanoma is 0.561 µM; in the experiment on NCI-H460 lung it was 2.64 µM; in the experiment with SNB-75 CNS, 2.81 µM; in the experiment with UACC-62 melanoma it was 2.83 µM. For the same compound, the TGI was greater than 16.7 µM in the experiment on 786-0 renal; 13.1 µM with COLO 205 colon; greater than 16.7 µM with DU-145 prostate; greater than 16.7 µM in the experiment on HCC-2998 colon; 4.4 µM in the experiment on HCT-116 colon; 9.93 µM in the experiment with HOP-62 NSCLC. Moreover, the TGI in the experiment on LOX IMVI melanoma was 2.83 µM; in the experiment on NCI-H460 lung, 6.51 µM; in the experiment on SNB-75 CNS, greater than 16.7 µM; with UACC-62 melanoma, 6.57 µM.

Consider `O=c1[nH]c2ccccc2n1C1CCN(CCCC(c2ccc(F)cc2)c2ccc(F)cc2)CC1`, for which the GI50 with 786-0 renal was 1.75 µM and 2.79 µM; in the experiment on COLO 205 colon, 1.31 µM; in the experiment with DU-145 prostate, 1.73 µM and 13.7 µM; with HCC-2998 colon it was 1.5 µM; with HCT-116 colon, 1.44 µM and 5.67 µM; with HOP-62 NSCLC, 1.53 µM. In addition, the GI50 in the experiment with LOX IMVI melanoma was 1.61 µM and 2.55 µM; with NCI-H460 lung it was 1.75 µM and 4.26 µM; in the experiment on UACC-62 melanoma, 1.38 µM and 9.92 µM. In addition, the TGI in the experiment with 786-0 renal is 3.38 µM and 7.58 µM; with COLO 205 colon, 2.58 µM and 3.31 µM; with DU-145 prostate it was 3.24 µM and 28.5 µM; in the experiment on HCC-2998 colon, 2.9 µM and 3.84 µM; in the experiment on HCT-116 colon, 3.14 µM and 17.8 µM; in the experiment on HOP-62 NSCLC it was 2.89 µM and 22.3 µM. Also, the TGI was 3.02 µM and 6.62 µM with LOX IMVI melanoma; 3.4 µM and 12 µM in the experiment on NCI-H460 lung; 25.6 µM with SNB-75 CNS; 2.75 µM and 23.5 µM in the experiment with UACC-62 melanoma.

For the compound `C/C(=N\NC(=S)N1CCN(c2ccccn2)CC1)c1ncccn1`, the GI50 in the experiment with 786-0 renal was 0.0742 µM; with COLO 205 colon it was less than 0.0245 µM; in the experiment on DU-145 prostate, 3.17 µM; in the experiment with HCC-2998 colon, 0.177 µM; with HOP-62 NSCLC, 0.0865 µM; in the experiment with LOX IMVI melanoma, less than 0.0183 µM. Also, the values for the GI50 in the experiment with NCI-H460 lung, with SNB-75 CNS and in the experiment on UACC-62 melanoma were 0.0538 µM, 4.48 µM and 0.057 µM, respectively. In addition, the TGI is 15.7 µM in the experiment with 786-0 renal; 18.8 µM with DU-145 prostate; 5.21 µM and 13.5 µM with HCC-2998 colon; 5.05 µM and 14.7 µM in the experiment with HCT-116 colon; 2.09 µM and 7.05 µM with HOP-62 NSCLC; 9.45 µM and 2.53 µM with LOX IMVI melanoma. Moreover, the TGI in the experiment with NCI-H460 lung was 5.88 µM and 14 µM; in the experiment with SNB-75 CNS, 20.3 µM; in the experiment with UACC-62 melanoma it was 0.58 µM and 4.19 µM.

As for `O=S(=O)(NCCCNc1nccc(-c2c(-c3ccc(F)cc3)nc3sccn23)n1)c1ccc(F)cc1`, the GI50 is 11 µM with 786-0 renal; 6.23 µM in the experiment on COLO 205 colon; 10.8 µM in the experiment with DU-145 prostate; 20.6 µM in the experiment with HCC-2998 colon; 5.55 µM in the experiment on HCT-116 colon; 24.8 µM in the experiment with HOP-62 NSCLC. Also, the GI50 is 6.28 µM with LOX IMVI melanoma, 5.62 µM in the experiment on NCI-H460 lung, 2.16 µM with SNB-75 CNS and 4.68 µM in the experiment with UACC-62 melanoma. Moreover, the TGI in the experiment with 786-0 renal, in the experiment with COLO 205 colon, with DU-145 prostate, with HCC-2998 colon, in the experiment on HCT-116 colon and with HOP-62 NSCLC was greater than 100 µM in each case. Also, the TGI in the experiment with LOX IMVI melanoma is greater than 100 µM; in the experiment on NCI-H460 lung, greater than 100 µM; in the experiment on SNB-75 CNS it was 16.9 µM; in the experiment with UACC-62 melanoma, 50.7 µM.

On to `[Cl][Cu][Cl]`, for which the GI50 with 786-0 renal, in the experiment with COLO 205 colon, in the experiment with DU-145 prostate, in the experiment with HCC-2998 colon, in the experiment with HCT-116 colon and with HOP-62 NSCLC was greater than 10 µM in each case. The GI50 with LOX IMVI melanoma, in the experiment on NCI-H460 lung, in the experiment with SNB-75 CNS and with UACC-62 melanoma was greater than 10 µM in each case. For the same compound, the TGI in the experiment with 786-0 renal, with COLO 205 colon, in the experiment with DU-145 prostate, in the experiment with HCC-2998 colon, in the experiment with HCT-116 colon and with HOP-62 NSCLC was greater than 10 µM throughout. Besides, the TGI with LOX IMVI melanoma, in the experiment with NCI-H460 lung, with SNB-75 CNS and in the experiment with UACC-62 melanoma was greater than 10 µM each time.

Regarding `COc1ccc(S(=O)(=O)N2CCNCC2)cc1OC`, the GI50 in the experiment with 786-0 renal, with COLO 205 colon, with DU-145 prostate, in the experiment on HCC-2998 colon, in the experiment with HCT-116 colon and in the experiment with HOP-62 NSCLC was greater than 100 µM throughout. The GI50 in the experiment on LOX IMVI melanoma, in the experiment with NCI-H460 lung, with SNB-75 CNS and in the experiment with UACC-62 melanoma was greater than 100 µM each time. Also, the TGI in the experiment on 786-0 renal, in the experiment on COLO 205 colon, in the experiment with DU-145 prostate, in the experiment on HCC-2998 colon, with HCT-116 colon and with HOP-62 NSCLC was greater than 100 µM throughout. Also, the TGI in the experiment with LOX IMVI melanoma, with NCI-H460 lung, in the experiment on SNB-75 CNS and in the experiment on UACC-62 melanoma was greater than 100 µM throughout.

For `Cc1ccc(S(=O)(=O)NC(=O)OC23COCN2COC3)cc1`, the TGI in the experiment on 786-0 renal, with COLO 205 colon, with DU-145 prostate, in the experiment on HCC-2998 colon, in the experiment on HCT-116 colon and in the experiment with HOP-62 NSCLC was greater than 100 µM each time. The TGI with LOX IMVI melanoma, in the experiment on NCI-H460 lung, in the experiment with SNB-75 CNS and in the experiment with UACC-62 melanoma was greater than 100 µM each time.
